# Patent publication US7786054B2, “Biocide for well stimulation and treatment fluids” (Kemira Chemicals, Inc., priority 2006, dated 2010)
# Entries after “also recorded” stand apart in the source; their conditions may differ.
# Tests used:
# [1] = system: acid producing bacteria (AB); experiment: Biocidal effectiveness on acid producing bacteria in spiked frac pond water, serial dilution counts over 180 days with challenges; format: cell-based
# Method: (§1) In this example, the biocidal effectiveness on sulfate reducing bacteria (SRB) and acid producing bacteria (AB) for biocide formulations containing CB Thione and WB Thione to Glut and THPS was examined.
# (§2) A one gallon sample was separated from a five gallon sample of frac pond water for these studies. The frac pond water sample included SRB and AB. Ten mL of a 10^9 cfu/mL inoculum of SRB grown in anaerobic API broth containing an O2 scavenger and 10 mL of a 10^9 cfu/mL inoculum of AB grown in anaerobic phenol red (anPR) broth containing an O2 scavenger were added to the one gallon frac pond water sample, mixed well and allowed to incubate for a period of time sufficient to achieve a desired number of SRB and AB. All broth media for inoculum and serial dilution counts in this study was made at 4% salinity to match the salinity of the original frac pond water measured by total dissolved solids testing. To increase nutrient value and to emulate on-site friction reducing additives, a 30 weight % acrylic acid, 70% acrylamide copolymer was added to the inoculated gallon of frac pond water sample at 300 ppm and then referred to as the spiked frac pond water sample. The spiked sample was then divided into 99.0 g aliquots for testing the effect of various biocides at various concentrations on the SRB and AB over a 180 day contact time. One spiked aliquot would serve as the control sample to which no biocide would be added. Challenges were made to all aliquots using 0.5 mL of 10^8 SRB and 0.5 mL, of 10^8 AB at 14, 28, and 129 days contact time.
# (§3) The biocides included a 20% water based Thione (WB Thione), a 24% caustic based Thione (CB Thione), a 25% Glut, and a 35% THPS. Stock biocide solutions of various concentrations were made from these biocides as described below.
# (§4) The WB Thione stock solutions were prepared by adding 3.0 g of the biocide to 17.0 g of sterile distilled water to form an intermediate solution, followed by combining each intermediate solution with water in the accounts shown in Table 1 below to make the descending concentrations as shown in Table 1.
# (§5) The CB Thione stock solutions were prepared by adding 3.0 g of the biocide to 17.0 g of sterile distilled water to form an intermediate solution, followed by combining each intermediate solution with water in the amounts shown in Table 2 below to make the descending concentrations as shown in Table 2.
# (§6) The Glut stock solutions were prepared by adding 1.0 g biocide to 19.0 g of sterile distilled water to form an intermediate solution, followed by combining each intermediate solution with water in the amounts shown in Table 3 below to make the descending concentrations as shown in Table 3.
# (§7) The THPS stock solutions were prepared by adding 1.0 g of the biocide to 19.0 g of sterile distilled water to form an intermediate solution, followed by combining each intermediate solution with water in the amounts shown in Table 4 below to make the descending concentrations as shown in Table 4.
# (§8) Next, 1 g of each biocide stock solution was added to the appropriately labeled 99.0 g aliquot. Also, 1.0 g of sterile water was added to the control aliquot. The concentrations of the biocides present in each aliquot are provided below in Table 5.
# (§9) The aliquots were then incubated at room temperature in the dark for the entire study, i.e., 6 months. […] Using sterile syringes, this testing was performed by serial diluting the aliquots into sealed 9.0 mL anaerobic API broth and anaerobic PR broth bottles, both media containing an O2 scavenger, in the appropriate labeled set of SRB bottles (6 for each aliquot) mid AB bottles (6 for each aliquot) until a color change occurred, indicating the log quantity of organisms present in each aliquot.
# [2] = system: sulfate reducing bacteria (SRB); experiment: Biocidal effectiveness on sulfate reducing bacteria in spiked frac pond water, serial dilution counts over 180 days with challenges; format: cell-based
# Method: as §1, §2, §3, §4, §5, §6, §7, §8, §9
# [3] = Effect of biocide on the oxygen scavenger (oxygen reduction potential); format: physicochemical; settings: 500 ppm biocide; 120 ppm SMBS; pH 6.4; FIG. 5
# Method: In the following examples, an in-house constructed Inversion Loop was modified with a Grace M3500 viscometer for periodically measuring fluid viscosity as a function of time. The ORP apparatus included a HACH sensION pH meter with a combination ORP electrode. In Example 7, a friction loop apparatus was employed
# To a beaker containing 500 milliliters of deionized water, a 120 ppm dose of sodium metabisulfite (SMBS) was added and the pH and oxygen reduction potential (ORP) were recorded. Once stabilized, phosphate buffer was added to increase the pH to 6.4 and the ORP recorded. Finally, the particular biocide tested was added at a concentration of 500 ppm. The ORP was recorded initially and after a period of 10 minutes.
# [4] = 500 ppm as is (Glut, THPS), 7 Days
# [5] = 500 ppm as is (Glut, THPS), 14 Days
# [6] = 500 ppm as is (Glut, THPS), 21 Days
# [7] = 500 ppm as is (Glut, THPS), 28 Days
# [8] = 500 ppm as is (Glut, THPS), 35 Days
# [9] = 500 ppm as is (Glut, THPS), 42 Days
# [10] = 500 ppm as is (Glut, THPS), 58 Days
# [11] = 500 ppm as is (Glut, THPS), 90 Days
# [12] = up to 180 days contact time, challenges at 14, 28 and 129 days
smiles,measurement,setting,value
"O=CCCCC=O [Glut, glutaraldehyde]",Log 10 Anaerobic Acid Producing Bacteria/mL,"[1]; 50 ppm as is, 7 Days",0 Log 10 Bacteria/mL
same,Log 10 Anaerobic Acid Producing Bacteria/mL,"[1]; 50 ppm as is, 14 Days",0 Log 10 Bacteria/mL
same,Log 10 Anaerobic Acid Producing Bacteria/mL,"[1]; 50 ppm as is, 21 Days",1 Log 10 Bacteria/mL
same,Log 10 Anaerobic Acid Producing Bacteria/mL,"[1]; 50 ppm as is, 28 Days",0 Log 10 Bacteria/mL
same,Log 10 Anaerobic Acid Producing Bacteria/mL,"[1]; 50 ppm as is, 35 Days",≧3 Log 10 Bacteria/mL
same,Log 10 Anaerobic Acid Producing Bacteria/mL,"[1]; 50 ppm as is, 42 Days",≧6 Log 10 Bacteria/mL
same,Log 10 Anaerobic Acid Producing Bacteria/mL,"[1]; 50 ppm as is, 58 Days",≧6 Log 10 Bacteria/mL
same,Log 10 Anaerobic Acid Producing Bacteria/mL,"[1]; 50 ppm as is, 90 Days",≧5 Log 10 Bacteria/mL
same,Log 10 Anaerobic Acid Producing Bacteria/mL,"[1]; 100 ppm as is, 7 Days",0 Log 10 Bacteria/mL
same,Log 10 Anaerobic Acid Producing Bacteria/mL,"[1]; 100 ppm as is, 14 Days",0 Log 10 Bacteria/mL
same,Log 10 Anaerobic Acid Producing Bacteria/mL,"[1]; 100 ppm as is, 21 Days",0 Log 10 Bacteria/mL
same,Log 10 Anaerobic Acid Producing Bacteria/mL,"[1]; 100 ppm as is, 28 Days",0 Log 10 Bacteria/mL
same,Log 10 Anaerobic Acid Producing Bacteria/mL,"[1]; 100 ppm as is, 35 Days",≧3 Log 10 Bacteria/mL
same,Log 10 Anaerobic Acid Producing Bacteria/mL,"[1]; 100 ppm as is, 42 Days",≧6 Log 10 Bacteria/mL
same,Log 10 Anaerobic Acid Producing Bacteria/mL,"[1]; 100 ppm as is, 58 Days",≧6 Log 10 Bacteria/mL
same,Log 10 Anaerobic Acid Producing Bacteria/mL,"[1]; 100 ppm as is, 90 Days",≧6 Log 10 Bacteria/mL
same,Log 10 Anaerobic Acid Producing Bacteria/mL,"[1]; 200 ppm as is, 7 Days",0 Log 10 Bacteria/mL
same,Log 10 Anaerobic Acid Producing Bacteria/mL,"[1]; 200 ppm as is, 14 Days",1 Log 10 Bacteria/mL
same,Log 10 Anaerobic Acid Producing Bacteria/mL,"[1]; 200 ppm as is, 21 Days",0 Log 10 Bacteria/mL
same,Log 10 Anaerobic Acid Producing Bacteria/mL,"[1]; 200 ppm as is, 28 Days",0 Log 10 Bacteria/mL
same,Log 10 Anaerobic Acid Producing Bacteria/mL,"[1]; 200 ppm as is, 35 Days",≧3 Log 10 Bacteria/mL
same,Log 10 Anaerobic Acid Producing Bacteria/mL,"[1]; 200 ppm as is, 42 Days",≧5 Log 10 Bacteria/mL
same,Log 10 Anaerobic Acid Producing Bacteria/mL,"[1]; 200 ppm as is, 58 Days",≧6 Log 10 Bacteria/mL
same,Log 10 Anaerobic Acid Producing Bacteria/mL,"[1]; 200 ppm as is, 90 Days",≧6 Log 10 Bacteria/mL
same,Log 10 Anaerobic Acid Producing Bacteria/mL,[1]; [4],0 Log 10 Bacteria/mL
same,Log 10 Anaerobic Acid Producing Bacteria/mL,[1]; [5],0 Log 10 Bacteria/mL
same,Log 10 Anaerobic Acid Producing Bacteria/mL,[1]; [6],0 Log 10 Bacteria/mL
same,Log 10 Anaerobic Acid Producing Bacteria/mL,[1]; [7],0 Log 10 Bacteria/mL
same,Log 10 Anaerobic Acid Producing Bacteria/mL,[1]; [8],≧3 Log 10 Bacteria/mL
same,Log 10 Anaerobic Acid Producing Bacteria/mL,[1]; [9],4 Log 10 Bacteria/mL
same,Log 10 Anaerobic Acid Producing Bacteria/mL,[1]; [10],≧6 Log 10 Bacteria/mL
same,Log 10 Anaerobic Acid Producing Bacteria/mL,[1]; [11],≧6 Log 10 Bacteria/mL
same,control of AB in frac pond water (summary in words),[1]; [12],lost all control of SRB and AB after the 2nd challenge on day 28
same,Log 10 Anaerobic Sulfate Reducing Bacteria/mL,"[2]; 50 ppm as is, 7 Days",0 Log 10 Bacteria/mL
same,Log 10 Anaerobic Sulfate Reducing Bacteria/mL,"[2]; 50 ppm as is, 14 Days",0 Log 10 Bacteria/mL
same,Log 10 Anaerobic Sulfate Reducing Bacteria/mL,"[2]; 50 ppm as is, 21 Days",0 Log 10 Bacteria/mL
same,Log 10 Anaerobic Sulfate Reducing Bacteria/mL,"[2]; 50 ppm as is, 28 Days",0 Log 10 Bacteria/mL
same,Log 10 Anaerobic Sulfate Reducing Bacteria/mL,"[2]; 50 ppm as is, 35 Days",≧3 Log 10 Bacteria/mL
same,Log 10 Anaerobic Sulfate Reducing Bacteria/mL,"[2]; 50 ppm as is, 42 Days",≧6 Log 10 Bacteria/mL
same,Log 10 Anaerobic Sulfate Reducing Bacteria/mL,"[2]; 50 ppm as is, 58 Days",≧6 Log 10 Bacteria/mL
same,Log 10 Anaerobic Sulfate Reducing Bacteria/mL,"[2]; 50 ppm as is, 90 Days",≧5 Log 10 Bacteria/mL
same,Log 10 Anaerobic Sulfate Reducing Bacteria/mL,"[2]; 100 ppm as is, 7 Days",0 Log 10 Bacteria/mL
same,Log 10 Anaerobic Sulfate Reducing Bacteria/mL,"[2]; 100 ppm as is, 14 Days",0 Log 10 Bacteria/mL
same,Log 10 Anaerobic Sulfate Reducing Bacteria/mL,"[2]; 100 ppm as is, 21 Days",0 Log 10 Bacteria/mL
same,Log 10 Anaerobic Sulfate Reducing Bacteria/mL,"[2]; 100 ppm as is, 28 Days",0 Log 10 Bacteria/mL
same,Log 10 Anaerobic Sulfate Reducing Bacteria/mL,"[2]; 100 ppm as is, 35 Days",≧3 Log 10 Bacteria/mL
same,Log 10 Anaerobic Sulfate Reducing Bacteria/mL,"[2]; 100 ppm as is, 42 Days",≧6 Log 10 Bacteria/mL
same,Log 10 Anaerobic Sulfate Reducing Bacteria/mL,"[2]; 100 ppm as is, 58 Days",≧5 Log 10 Bacteria/mL
same,Log 10 Anaerobic Sulfate Reducing Bacteria/mL,"[2]; 100 ppm as is, 90 Days",≧5 Log 10 Bacteria/mL
same,Log 10 Anaerobic Sulfate Reducing Bacteria/mL,"[2]; 200 ppm as is, 7 Days",0 Log 10 Bacteria/mL
same,Log 10 Anaerobic Sulfate Reducing Bacteria/mL,"[2]; 200 ppm as is, 14 Days",0 Log 10 Bacteria/mL
same,Log 10 Anaerobic Sulfate Reducing Bacteria/mL,"[2]; 200 ppm as is, 21 Days",0 Log 10 Bacteria/mL
same,Log 10 Anaerobic Sulfate Reducing Bacteria/mL,"[2]; 200 ppm as is, 28 Days",0 Log 10 Bacteria/mL
same,Log 10 Anaerobic Sulfate Reducing Bacteria/mL,"[2]; 200 ppm as is, 35 Days",≧3 Log 10 Bacteria/mL
same,Log 10 Anaerobic Sulfate Reducing Bacteria/mL,"[2]; 200 ppm as is, 42 Days",≧6 Log 10 Bacteria/mL
same,Log 10 Anaerobic Sulfate Reducing Bacteria/mL,"[2]; 200 ppm as is, 58 Days",≧6 Log 10 Bacteria/mL
same,Log 10 Anaerobic Sulfate Reducing Bacteria/mL,"[2]; 200 ppm as is, 90 Days",≧6 Log 10 Bacteria/mL
same,Log 10 Anaerobic Sulfate Reducing Bacteria/mL,[2]; [4],0 Log 10 Bacteria/mL
same,Log 10 Anaerobic Sulfate Reducing Bacteria/mL,[2]; [5],0 Log 10 Bacteria/mL
same,Log 10 Anaerobic Sulfate Reducing Bacteria/mL,[2]; [6],0 Log 10 Bacteria/mL
same,Log 10 Anaerobic Sulfate Reducing Bacteria/mL,[2]; [7],0 Log 10 Bacteria/mL
same,Log 10 Anaerobic Sulfate Reducing Bacteria/mL,[2]; [8],≧3 Log 10 Bacteria/mL
same,Log 10 Anaerobic Sulfate Reducing Bacteria/mL,[2]; [9],5 Log 10 Bacteria/mL
same,Log 10 Anaerobic Sulfate Reducing Bacteria/mL,[2]; [10],≧6 Log 10 Bacteria/mL
same,Log 10 Anaerobic Sulfate Reducing Bacteria/mL,[2]; [11],≧6 Log 10 Bacteria/mL
same,control of SRB in frac pond water (summary in words),[2]; [12],lost all control of SRB and AB after the 2nd challenge on day 28; also recorded: failed completely at all concentrations after challenging twice at 14 and 28 days contact time
same,ORP after 10 minutes of residence time,[3],increases nearly to the level of the DI H2O alone
same,ORP response upon initial addition of biocide,[3],does not significantly impact ORP
